Activity calls are given as the source filed them. No cut-off for these calls is given here.
Columns and labels:
[1] = molecular target: Cathepsin S (Homo sapiens, UniProt P25774); assay: Inhibition of cathepsin-S (unknown origin)
[2] = molecular target: Caspase-8 (Homo sapiens, UniProt Q14790); assay: Inhibition of caspase-8 (unknown origin)
[3] = Inhibition of cathepsin-L (unknown origin); parameters: species or system Homo sapiens
[4] = molecular target: T1, Caspase-3 (Homo sapiens, UniProt P42574); assay: Inhibition of caspase-3 (unknown origin)
T1 sequence (P42574 whole entry): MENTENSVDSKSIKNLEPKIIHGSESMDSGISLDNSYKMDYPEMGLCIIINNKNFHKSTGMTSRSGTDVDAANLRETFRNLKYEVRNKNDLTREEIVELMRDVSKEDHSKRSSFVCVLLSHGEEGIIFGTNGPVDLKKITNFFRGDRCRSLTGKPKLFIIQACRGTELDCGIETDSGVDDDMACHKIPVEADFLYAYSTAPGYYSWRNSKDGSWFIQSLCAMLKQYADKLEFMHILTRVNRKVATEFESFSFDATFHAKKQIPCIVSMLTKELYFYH

[5] = molecular target: T2, Legumain (Homo sapiens) (UniProt Q99538); assay: Inhibition of AEP (unknown origin) assessed as residual activity at 1 uM using Cbz-Ala-Ala-Asn-AMC as substrate after 15 mins by fluorescence assay relative to control
T2 sequence (whole entry): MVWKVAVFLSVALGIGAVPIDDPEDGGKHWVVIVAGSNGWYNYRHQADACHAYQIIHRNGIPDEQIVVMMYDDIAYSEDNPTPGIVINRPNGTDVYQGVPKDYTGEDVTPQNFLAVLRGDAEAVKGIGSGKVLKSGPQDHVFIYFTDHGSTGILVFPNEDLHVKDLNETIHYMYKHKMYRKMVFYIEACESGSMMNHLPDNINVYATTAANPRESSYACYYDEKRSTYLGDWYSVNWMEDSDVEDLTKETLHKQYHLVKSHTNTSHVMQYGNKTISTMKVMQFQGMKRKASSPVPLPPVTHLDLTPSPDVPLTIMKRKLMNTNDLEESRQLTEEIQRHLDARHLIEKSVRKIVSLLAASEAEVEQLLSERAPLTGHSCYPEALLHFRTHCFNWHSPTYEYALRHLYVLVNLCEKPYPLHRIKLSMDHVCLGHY

[6] = molecular target: T3, Legumain (Homo sapiens, UniProt Q99538); assay: Inhibition of AEP (unknown origin) using Cbz-Ala-Ala-Asn-AMC as substrate after 15 mins by fluorescence assay
T3 sequence (Q99538 whole entry): T2 sequence (whole entry)

[7] = species on record: Homo sapiens; assay: Selectivity ratio of IC50 for cathepsin-L (unknown origin) to IC50 for AEP (unknown origin)
[8] = Apparent permeability across apical to basolateral side in human Caco2 cells after 2 hrs by LC-MS/MS method; assay type: ADME, cell-based; details: caco-2, 2 h
[9] = molecular target: T4, Legumain (Mus musculus) (UniProt O89017); assay: Inhibition of AEP in mouse kidney by HTS assay
T4 sequence (whole entry): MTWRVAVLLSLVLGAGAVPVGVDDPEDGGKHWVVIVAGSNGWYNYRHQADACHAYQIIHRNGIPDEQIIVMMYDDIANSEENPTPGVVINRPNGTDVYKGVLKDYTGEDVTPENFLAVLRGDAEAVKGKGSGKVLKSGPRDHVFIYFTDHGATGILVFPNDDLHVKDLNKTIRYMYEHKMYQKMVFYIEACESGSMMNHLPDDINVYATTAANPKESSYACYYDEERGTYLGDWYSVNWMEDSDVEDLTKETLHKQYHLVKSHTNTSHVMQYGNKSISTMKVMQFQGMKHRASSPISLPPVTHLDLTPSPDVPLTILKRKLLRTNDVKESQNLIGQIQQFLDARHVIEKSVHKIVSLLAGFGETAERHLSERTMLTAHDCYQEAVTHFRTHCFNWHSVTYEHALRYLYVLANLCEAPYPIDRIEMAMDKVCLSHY

[10] = molecular target: T3, Legumain; assay: Competitive inhibition of AEP (unknown origin) using varying levels of Z-AAN-AMC substrate after 10 mins by Lineweaver-Burk plot analysis
[11] = Apparent permeability across basolateral to apical side in human Caco2 cells after 2 hrs by LC-MS/MS method; assay type: ADME, cell-based; details: caco-2, 2 h
[12] = system: MDA-MB-231; assay: Anti-invasive activity against human MDA-MB-231 cells by crystal violet staining based microscopic method; assay type: functional, cell-based
[13] = system: MDA-MB-231; assay: Cytotoxicity against human MDA-MB-231 cells assessed as reduction in cell viability up to 10 uM by MTT assay; assay type: cell-based
[14] = system: Mus musculus; assay: Toxicity in nude mouse xenografted with human MDA-MB-231 cells assessed as effect on blood count at 3 to 10 mg/kg, po via gavage for 42 consecutive days by hematoxylin and eosin staining based microscopic method; assay type: organism-based; details: in vivo
[15] = system: MDA-MB-231; assay: Antitumor activity against human MDA-MB-231 cells xenografted in nude mouse assessed as metastatic nodules on lungs at 3 mg/kg, po via gavage for 42 consecutive days by hematoxylin and eosin staining based microscopic method relative to control; assay type: functional
[16] = system: MDA-MB-435; assay: Anti-migratory activity against human MDA-MB-435 cells up to 2 uM by transwell assay relative to control; assay type: functional
[17] = system: MDA-MB-435; assay: Cytotoxicity against human MDA-MB-435 cells assessed as reduction in cell viability up to 2 uM by MTT assay; assay type: cell-based
[18] = system: Mus musculus; assay: Toxicity in nude mouse xenografted with human MDA-MB-231 cells assessed as abnormality in liver at 3 to 10 mg/kg, po via gavage for 42 consecutive days by hematoxylin and eosin staining based microscopic method; assay type: organism-based; details: in vivo
[19] = system: Mus musculus; assay: Reduction in ratio of cleaved MMP2 to full-length MMP2 in mammary tumor of nude mouse xenografted with human MDA-MB-231 cells at 3 to 10 mg/kg, po via gavage for 42 consecutive days by gelatin zymography assay; assay type: functional, organism-based
[20] = system: MDA-MB-231; assay: Antitumor activity against human MDA-MB-231 cells xenografted in nude mouse assessed as metastatic nodules on lungs at 10 mg/kg, po via gavage for 42 consecutive days by hematoxylin and eosin staining based microscopic method relative to control; assay type: functional
[21] = system: MDA-MB-231; assay: Anti-migratory activity against human MDA-MB-231 cells up to 2 uM by transwell assay relative to control; assay type: functional
[22] = system: Mus musculus; assay: Toxicity in nude mouse xenografted with human MDA-MB-231 cells assessed as body weight loss at 3 to 10 mg/kg, po via gavage for 42 consecutive days; assay type: organism-based; details: in vivo
[23] = system: MDA-MB-231; assay: Cytotoxicity against human MDA-MB-231 cells assessed as reduction in cell viability up to 2 uM by MTT assay; assay type: cell-based
[24] = system: MDA-MB-231; assay: Anti-invasive activity against human MDA-MB-231 cells at 2 uM by crystal violet staining based microscopic method relative to control; assay type: functional
[25] = system: MDA-MB-435; assay: Anti-invasive activity against human MDA-MB-435 cells by crystal violet staining based microscopic method; assay type: functional, cell-based
[26] = system: MDA-MB-231; assay: Antitumor activity against human MDA-MB-231 cells xenografted in nude mouse assessed as reduction in mammary tumor weight at 3 to 10 mg/kg, po via gavage for 42 consecutive days; assay type: functional, organism-based
[27] = system: MDA-MB-435; assay: Anti-invasive activity against human MDA-MB-435 cells at 2 uM by crystal violet staining based microscopic method relative to control; assay type: functional
[28] = system: MDA-MB-231; assay: Inhibition of MMP2 cleavage in human MDA-MB-231 cells harboring AEP siRNA up to 10 uM by gelatin zymography assay; assay type: functional, cell-based
[29] = system: Mus musculus; assay: Toxicity in nude mouse xenografted with human MDA-MB-231 cells assessed as abnormality in bone marrow at 3 to 10 mg/kg, po via gavage for 42 consecutive days by hematoxylin and eosin staining based microscopic method; assay type: organism-based; details: in vivo
[30] = system: Mus musculus; assay: Toxicity in nude mouse xenografted with human MDA-MB-231 cells assessed as abnormality in kidney at 3 to 10 mg/kg, po via gavage for 42 consecutive days by hematoxylin and eosin staining based microscopic method; assay type: organism-based; details: in vivo
[31] = system: Mus musculus; assay: Toxicity in nude mouse xenografted with human MDA-MB-231 cells assessed as increase in spleen size at 3 to 10 mg/kg, po via gavage for 42 consecutive days; assay type: organism-based; details: in vivo
[32] = system: MDA-MB-231; assay: Anti-invasive activity against human MDA-MB-231 cells harboring AEP siRNA up to 2 uM by crystal violet staining based microscopic method; assay type: functional, cell-based
[33] = system: MDA-MB-435; assay: Anti-invasive activity against human MDA-MB-435 cells harboring AEP siRNA up to 2 uM by crystal violet staining based microscopic method; assay type: functional, cell-based

Cathepsin S, sequence (P25774 whole entry): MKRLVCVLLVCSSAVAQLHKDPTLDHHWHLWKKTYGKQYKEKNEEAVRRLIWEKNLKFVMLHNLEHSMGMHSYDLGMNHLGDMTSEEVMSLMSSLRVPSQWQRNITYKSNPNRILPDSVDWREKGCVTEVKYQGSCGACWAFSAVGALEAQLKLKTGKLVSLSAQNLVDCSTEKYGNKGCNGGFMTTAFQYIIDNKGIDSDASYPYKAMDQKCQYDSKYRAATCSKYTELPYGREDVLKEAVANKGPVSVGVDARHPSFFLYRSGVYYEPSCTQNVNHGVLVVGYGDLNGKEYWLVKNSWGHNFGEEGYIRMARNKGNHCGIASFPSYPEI
Caspase-8, sequence (Q14790 217-374 limits assumed): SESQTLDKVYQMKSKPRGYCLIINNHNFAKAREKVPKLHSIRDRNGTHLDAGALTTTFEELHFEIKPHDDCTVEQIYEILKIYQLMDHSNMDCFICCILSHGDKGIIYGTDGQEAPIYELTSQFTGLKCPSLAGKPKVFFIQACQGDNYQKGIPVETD
Caspase-8, sequence (Q14790 385-479 limits assumed): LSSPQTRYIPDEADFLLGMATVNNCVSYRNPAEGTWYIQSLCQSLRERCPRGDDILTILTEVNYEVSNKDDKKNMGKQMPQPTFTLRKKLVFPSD

Cn1c(S)nc2c1c(=O)n(Cc1ccccc1)c(=O)n2C showed an IC50 [1] of over 200 µM, an IC50 [2] of over 200 µM and an IC50 [3] of over 200 µM. For the same molecule, the IC50 [4] was over 200 µM.

CSc1nc2c(c(=O)n(C)c(=O)n2C)n1C showed an Activity [5] of 70.5%.

For Cn1c(=O)c2c(nc(S)n2C)n(C)c1=O, the Activity [5] was 16.1%, the IC50 [1] was over 200 µM and the IC50 [2] was over 200 µM. It also gave an IC50 [6] of 0.18 µM, an IC50 [3] of 80.5 µM and an IC50 [4] of 185 µM. For the same molecule, the Ratio IC50 [7] was 500.

Work on Cc1ccc(Cn2c(S)nc3c2c(=O)[nH]c(=O)n3C)cc1 yielded an Activity [5] of 12.3%.

For Cn1c(=O)c2c(nc(S(C)(=O)=O)n2C)n(C)c1=O, the Activity [5] was 98.3%.

Molecule CC(C)Cn1c(S)nc2c1c(=O)[nH]c(=O)n2C has an Activity [5] of 15.7%.

With Cn1c(=O)n(Cc2ccccc2)c(=O)c2c1nc(S)n2Cc1ccccc1 the Activity [5] was 17.2%.

In the case of CCCn1c(S)nc2c1c(=O)[nH]c(=O)n2C, the Activity [5] is reported as 14.9%.

For Cn1ccnc1Sc1nc2c(c(=O)n(C)c(=O)n2C)n1C, the Activity [5] was 100%.

CC[C@H](C)n1c(S)nc2c1c(=O)[nH]c(=O)n2C gave an Activity [5] of 14.1%.

Molecule COCCn1c(S)nc2c1c(=O)[nH]c(=O)n2C has an Activity [5] of 13.8%.

With Cn1c(=O)[nH]c(=O)c2c1nc(S)n2CC(O)COc1ccc(Cl)cc1 (stereo unspecified) the Papp [8] was 1.1 ×10⁻⁶ cm/s, the IC50 [1] was over 200 µM and the inhibition [9] was “Active”. It also gave a Ki [10] of 0.105 µM, an IC50 [3] of over 200 µM and a Papp [11] of 20.3 ×10⁻⁶ cm/s.

For Cn1c(=O)c2c(ncn2C)n(C)c1=O, the Activity [5] was 74.3%.

COc1ccc(OC[C@@H](O)Cn2c(S)nc3c2c(=O)[nH]c(=O)n3C)cc1 gave an Activity [5] of 18.5%.

CC(=O)Cn1c(S)nc2c1c(=O)[nH]c(=O)n2C gave an Activity [5] of 69.4%.

Cc1ccc(Cn2c(S)nc3c2c(=O)n(C)c(=O)n3C)cc1 gave an Activity [5] of 17.2%.

In the case of CCn1c(S)nc2c1c(=O)[nH]c(=O)n2C, the Activity [5] is reported as 13.8%.

C=CCn1c(S)nc2c1c(=O)n(C)c(=O)n2C gave an Activity [5] of 18.1%.

Cn1c(S)nc2c1c(=O)[nH]c(=O)n2C showed an Activity [5] of 11.5%.

CCCCn1c(S)nc2c1c(=O)[nH]c(=O)n2C showed an Activity [5] of 14.8%.

Molecule CC(C)n1c(S)nc2c1c(=O)n(C)c(=O)n2C has an Activity [5] of 17.8%.

For Cn1c(=O)[nH]c(=O)c2c1nc(S)n2C[C@H](O)CO, the Activity [5] was 85.4%.

Molecule Cn1c(=O)c2c(nc(S(=O)(=O)c3ccccc3)n2C)n(C)c1=O has an Activity [5] of 98.9%.

Molecule CCn1c(S)nc2c1c(=O)n(C)c(=O)n2C has an Activity [5] of 15.9%.

With Cc1ncc2c(=O)[nH]c(=O)n(C)c2n1 the Activity [5] was 91.9%.

In the case of CCn1c(=O)c2c(nc(S)n2C)n(C)c1=O, the Activity [12] is reported as “Dose-dependent effect”, the Activity [13] is reported as “Non-Toxic” and the Activity [14] is reported as “Non-Toxic”. For the same molecule, the Activity [15] was 33%, the “inhibition (INH)” value [16] was 40% and the Activity [17] was “Non-Toxic”. The Activity [18] was “Non-Toxic”, the Activity [19] was “Active” and the Activity [20] was 17%. The “inhibition (INH)” value [21] was 25%, the IC50 [1] was over 200 µM and the Activity [22] was “Non-Toxic”. The Activity [23] was “Non-Toxic”, the inhibition at 2 µM [24] was 75% and the Activity [25] was “Dose-dependent effect”. The Activity [26] was “Active”, the inhibition at 2 µM [27] was 75% and the inhibition [28] was “inactive”. The Activity [29] was “Non-Toxic”, the Activity [30] was “Non-Toxic” and the Activity [31] was “Toxic”. For the same molecule, the IC50 [2] was over 200 µM, the IC50 [3] was 162 µM and the IC50 [4] was over 200 µM. For the same molecule, the Activity [32] was “inactive” and the Activity [33] was “inactive”.

In the case of Cn1c(=O)[nH]c(=O)c2c1nc(S)n2C[C@H](O)COc1ccccc1, the Activity [5] is reported as 34.6%.
